Results published in patent US6716582B2 (priority 2000, dated 2004).

Assays:
Format in all cases: cell-based, E. coli
[1] = system: SOS regulon luxCDABE gene fusions; experiment: SOS regulon lux fusions: stress response in liquid LB; conditions: each of the eight SOS fusion strains; at least three concentrations
Description: To test the stress responses, one or two single colonies of each selected strain were used to inoculate 5.0 ml of LB medium containing 150 μg/ml of ampicillin. These cultures were grown overnight at 37° C. then diluted by adding 50 μl or 100 μl of the overnight culture into 10.0 ml of fresh LB medium (without ampicillin) and grown with agitation at 37° C. until the culture was in exponential phase with readings on a Klett-Summerson colorimeter containing the red filter of between 10 and 40. These actively growing cultures were immediately used to initiate a stress response experiment by adding 50 μl of cultures to 50 μl of LB medium containing various concentrations of chemical in the wells a 96 well luminometer plate. This division of the actively growing culture at the time of chemical addition ensured identical populations were present when the stress was imposed. Light production was measured in a Dynex ML3000 luminometer at 37° C. The dimensionless units of light production, relative light units (RLU), are obtained by comparison with the light reading from an internal light-emitting diode.
The ability of these promoter-luxCDABE fusions to report activation of the SOS stress response was tested using nalidixic acid, a known, potent chemical inducer. The final concentrations of nalidixic acid were 1, 5, 25, and 125 μg/ml for all but strain DPD2293, which was tested at 80, 40, 20, 10, 5, 2.5, and 1.25 μg/ml.
Specificity of responses was tested by measuring the effect of ethanol on these SOS regulon gene fusions.

yebF-luxCDABE fusion = experiment: inverted yebF-luxCDABE fusion induction by DNA damaging agents; conditions: inverted yebF-lux transformants; nalidixic acid
Description: In this case, a divergent promoter to the purT gene was present in the chromosomal fragment and strains containing the backward yebF fusion produced light. Following isolation of plasmid DNA, XmaI digestion that releases the insert DNA from the vector, religation and transformation, 10% of the transformants produced light. […] The orientation of the inserted segment to yield a fusion of yebF to the luxCDABE operon was confirmed by DNA sequence analysis.
To test inverting of a chromosomal segment in a plasmid containing divergent promoters, the backward fusion to yebF was chosen. […] In this case, a divergent promoter to the purT gene was present in the chromosomal fragment and strains containing the backward yebF fusion produced light. Following XmaI digestion, religation and transformation, 10% of the transformants produced light. […] This was verified by DNA sequence analysis. Thus, inverting chromosomal segments containing divergent promoters is possible and is facilitated if the two promoters can be distinguished by their biological activity.

luxCDABE gene fusions = experiment: retest of nalidixic acid upregulated fusions in liquid medium; conditions: of 7 conc tested
Description: Several concentrations of nalidixic acid were used because the differences in responses between liquid and solid growth were not known. Light production of 100 μl duplicate cultures at 37° C. was quantitated using a 96 well plate luminometer (Luminoskan Ascent, Labsystems). […] It should be noted that the liquid medium tests were not corrected for growth inhibition by nalidixic acid.

CCn1cc(C(=O)O)c(=O)c2ccc(C)nc21 [Nalidixic acid, nalidixic acid] was tested, and the “bioluminescence vs untreated control” value [1] was “increased bioluminescence”, the induction of bioluminescence (yebF-luxCDABE fusion) was “highly induced” and the “# of conc with > 1.5 fold up” value (luxCDABE gene fusions; dinG ybiB lux-a.pk0024.f5) was 6. For the same compound, the “# of conc with > 1.5 fold up” value (luxCDABE gene fusions; dinP lux-a.pk055.a3) was 7, the “# of conc with > 1.5 fold up” value (luxCDABE gene fusions; frvR frvX frvB frvA lux-a.pk046.e6) was 0 and the “# of conc with > 1.5 fold up” value (luxCDABE gene fusions; lpxA lpxB rnhB dnaE lux-a.pk061.c3) was 3. The “# of conc with > 1.5 fold up” value (luxCDABE gene fusions; lux-a.pk0015.d6) was 6, the “# of conc with > 1.5 fold up” value (luxCDABE gene fusions; lux-a.pk0019.g1) was 6 and the “# of conc with > 1.5 fold up” value (luxCDABE gene fusions; lux-a.pk033.c5) was 7. For the same compound, the “# of conc with > 1.5 fold up” value (luxCDABE gene fusions; oraA lux-a.pk058.f5) was 7, the “# of conc with > 1.5 fold up” value (luxCDABE gene fusions; yaaF lux-a.pk031.e7) was 3 and the “# of conc with > 1.5 fold up” value (luxCDABE gene fusions; yfhJ fdx hscA yfhE lux-a.pk0019.g2) was 0. For the same compound, the “# of conc with > 1.5 fold up” value (luxCDABE gene fusions; yigN lux-a.pk046.f11) was 5.
